Measured values reported in patent publication US20150182482A1, “EPROTIROME FOR USE IN THE PREVENTION AND/OR TREATMENT OF HAIR DISORDERS AND COMPOSITIONS THEREOF” (DR. AUGUST WOLFF GMBH & CO. KG ARZNEIMITTEL, priority 2012, published 2015).
“Also recorded” adds a separate entry of the source. Like-named read-outs stand apart in the source and are kept apart here.

Experiments:
[1] = tested on: hair matrix keratinocytes; test: Ki-67/TUNEL double staining, proliferation and apoptosis measurements; format: cell-based, human
Protocol: (§1) Normal human scalp skin was obtained from women undergoing routine face-lift surgery after informed consent.
(§2) Mircodissected anagen VI hair follicles in 3 or 4 groups (3 HFs/well) were cultured at 6 days in a 24-well plate with 500 μl Williams E medium (Biochrom) supplemented with 100 IU/ml penicillin, 10 μg/ml streptomycin (Gibco), 10 μg/ml insulin (Sigma), 10 ng/ml hydrocortisone (Sigma) and 2 mmol/1 L-glutamine (Invitrogen).
(§3) Anagen HFs and HFs were immediately embedded in Shandon Cryomatrix and snap frozen in liquid nitrogen. Six longitudinal sections of HFs were processed for immunohistological stainings.
To evaluate apoptotic cells in co-localization with a proliferation marker Ki-67, a Ki-67/terminal dUTP nick-end labelling (TUNEL) double-staining method was used. […] TUNEL-positive cells were visualized by an antidigoxigenin fluorescein isothiocyanate-conjugated antibody (ApopTag kit), whereas Ki-67 was detected by a rhodamine-labelled goat antimouse antibody (Jackson ImmunoResearch, West Grove, Pa.). Negative controls were performed by omitting terminal deoxynucleotidyl transferase and the Ki-67 antibody. Counterstaining was performed with 4′,6-diamidino-2-phenylindole (DAPI) (Roche Molecular Biochemicals GmbH, Mannheim, Germany). Quantitative immunohistomorphometry was performed; Ki-67-, TUNEL-, or DAPI-positive cells were counted in a previously defined reference region of the HF matrix and epidermis, and the percentage of Ki-67/TUNEL-positive cells was determined.

[2] = tested on: TGFβ2; test: TGFβ2 immunoreactivity in cultured hair follicles; format: cell-based, human
Protocol: as §1
(§4) Test system: Philpott model (Philpott et al., J. Cell. Mol. Life Sci., 1990, 97: 463-471)
as §2
(§5) Eprotirome, TRIAC, PF-277343 (1 pM, 100 pM) or vehicle were administered once for each change of medium (i.e. every 48 h).
as §3

[3] = tested on: human scalp hair follicles; test: Hair shaft elongation in human hair follicle organ culture (Philpott model); format: cell-based
Protocol: as §1, §2
Hair shaft length measurements of HFs were performed every second day on individual HFs using a Zeiss inverted binocular microscope with an eyepiece measuring graticule.

[4] = tested on: MTCO1; test: MTCO1 protein expression (immunoreactivity) in cultured hair follicles; format: cell-based, human
Protocol: as §1, §4, §2, §5, §3

[5] = tested on: hair growth; settings: monkey; cited from earlier work
[6] = tested on: tyrosinase activity of hair follicles; test: Tyrosinase activity of cultured hair follicles; format: cell-based, human
Protocol: as §1, §4, §2, §5, §3

[7] = tested on: human scalp hair follicles; test: HF cycle staging in human hair follicle organ culture; format: cell-based; settings: for hair cycle staging, macroscopic and microscopic, overall comparison: summary of the examples
Protocol: as §1, §4, §2, §5, §3
HF cycle staging was carried out according to defined morphological criteria, and the percentage of HFs in anagen and early, mid, or late catagen was determined.

[8] = tested on: hair growth; settings: mouse; cited from earlier work
[9] = tested on: human scalp hair follicles; test: Hair pigmentation, quantitative Masson-Fontana melanin staining of cultured hair follicles; format: cell-based; settings: for melanin content, overall comparison: summary of the examples
Protocol: as §1, §4, §2, §5, §3
For histochemical visualization of melanin, Masson-Fontana staining was performed on frozen sections. Melanin was stained as brown dots and the degree of pigmentation was assessed by quantitative Masson-Fontana as described (Ito et al., Br. J. Dermatol, 2005, 152: 623-631). This method is a very sensitive and reliable indicator of changes in melanin synthesis, as shown by standard tyrosinase expression and enzyme activity assays (Kauser et al, FASEB J. 2006, 20:882-95). Staining intensity was analyzed in a defined reference region of the HF pigmentary unit and, using the ImageJ software (National Institute of Health).

[10] = tested on: alopecia areata; settings: topical; cited from earlier work
[11] = tested on: human hair follicles; settings: cited from earlier work
[12] = tested on: CD rats; settings: topical; cited from earlier work
[13] = tested on: outer root sheath cells, dermal papilla cells, and fibrous sheath cells of hair follicles; settings: all these types of cells, significantly; cited from earlier work
[14] = tested on: SKH-1 mice; settings: topical; cited from earlier work
[15] = tested on: human hair follicles; settings: physiological level of free T3; cited from earlier work
[16] = Penetration in human skin; format: in vitro ADME
[17] = Stability; format: physicochemical
[18] = cited from earlier work
[19] = occipital scalp HFs, person two, 6 days culture
[20] = person two, after 6 days, macroscopically and microscopically
[21] = person two, 100 pM, anagen HFs and all HFs

## Cc1cc(-n2ncc(=O)[nH]c2=O)cc(C)c1Oc1ccc(O)c(Cc2ccc(F)cc2)c1 [PF-277343]
[1]; person three
  proliferation (Ki-67) of hair matrix keratinocytes: did not show effects
[1]; person three, 100 pM
  apoptosis (TUNEL): slightly inhibited (not significant)
[2]; person three, 100 pM concentration group
  TGFβ2 immunoreactivity: significantly reduced
[3]; occipital scalp HFs, person three, 1 pM
  hair shaft elongation: slight (not significant) tendency towards inhibition
[3]; summary of the examples
  hair shaft elongation, overall comparison: tendency of a slight inhibition
[4]; person three
  MTCO1 protein expression: no significant change
[5]
  efficacy in hair growth model: efficacious
[6]; person three, 100 pM, anagen HFs and all HFs
  tyrosinase activity: slightly upregulated
[6]; person three, 100 pM, only anagen HFs
  tyrosinase activity upregulation, significance: significant
[7]; person three, 1 pM
  macroscopic HF assessment (hair cycle staging): prematurely induces catagen
[7]; person three, 1 pM and 100 pM
  quantitative hair cycle histomorphometry: promoted premature catagen development
[7]
  hair cycle staging, macroscopic and microscopic, overall comparison: caused hair follicles to enter the catagen phase prematurely
[8]
  efficacy in hair growth model: efficacious
[9]; person three, 1 pM and 100 pM, all HFs
  melanisation: significantly decreased
[9]; person three, 100 pM, only anagen HFs (significant)
  melanin production: strong reduction
[9]
  melanin content, overall comparison: decrease in melanin content

## N[C@@H](Cc1cc(I)c(Oc2ccc(O)c(I)c2)c(I)c1)C(=O)O [T3, 3,5,3′-triiodo-L-thyronine]
[10]
  efficacy versus placebo: not more effective than placebo
  safety: safe
[11]
  anagen duration: prolong
  apoptosis of hair matrix keratinocytes (Ki-67/TUNEL staining): inhibited
  hair shaft elongation in vitro: did not translate to a significantly altered hair shaft elongation
  melanin synthesis in human hair follicles: stimulate
[12]
  epidermal proliferation, dermal thickening, and hair growth: stimulate
[13]
  proliferation and/or metabolism of hair follicle cell types: stimulated
[14]
  epidermal proliferation, dermal thickening, and hair growth: stimulate
[15]
  human hair survival in vitro: significantly enhanced

## N[C@@H](Cc1cc(I)c(Oc2cc(I)c(O)c(I)c2)c(I)c1)C(=O)O [T4, 3,5,3′,5′-tetraiodo-L-thyronine]
[11]
  anagen duration: prolong
  apoptosis of hair matrix keratinocytes (Ki-67/TUNEL staining): inhibited
  hair matrix keratinocyte proliferation (Ki-67/TUNEL staining): stimulated
  hair shaft elongation in vitro: did not translate to a significantly altered hair shaft elongation
  melanin synthesis in human hair follicles: stimulate

## O=C(O)Cc1cc(I)c(Oc2ccc(O)c(I)c2)c(I)c1 [TRIAC, Triiodothyroacetic Acid]
[1]; person two
  apoptosis (TUNEL): inhibited (not significant)
  proliferation (Ki-67) of hair matrix keratinocytes: slightly upregulated (not significant)
[2]; person two, 1 pM and 100 pM concentration groups
  TGFβ2 immunoreactivity reduction, significance: significant effect
[2]; person two, all concentrations
  TGFβ2 immunoreactivity: reduced
[3]; occipital scalp HFs, person two, 1 pM
  hair shaft elongation (inhibition), significance: significant effect
[3]; [19]
  hair shaft elongation: slight inhibition
[4]; person two
  MTCO1 protein expression: no significant change
[6]; person two, all HFs
  tyrosinase activity: downregulated
[6]; person two, all HFs, 0.1 pM and 1 pM groups
  tyrosinase activity downregulation, significance: significant
[7]; [20]
  anagen (prolongation): prolonged anagen
  catagen development: inhibited catagen development
[7]
  hair cycle staging, macroscopic and microscopic, overall comparison: able to prolong anagen and to inhibit catagen development
[16]
  penetration in human skin: inferior penetration
[17]
  stability: low stability
[9]; person two, all HFs
  hair follicle melanin content: No significant effects
[9]
  melanin content, overall comparison: no effects

## CC(C)c1cc(Oc2c(Br)cc(NC(=O)CC(=O)O)cc2Br)ccc1O [eprotirome, 3-[[3,5-dibromo-4-[4-hydroxy-3-(1-methylethyl)phenoxy]phenyl]amino]-3-oxo-propanoic acid]
[1]; person one, 100 pM
  proliferation of the hair matrix keratinocytes (Ki-67): increased proliferation
[1]; person two
  apoptosis (TUNEL): no change
  proliferation (Ki-67) of hair matrix keratinocytes: tendentially upregulated
[1]; summary of the examples
  proliferation of hair matrix keratinocytes, overall: increased proliferation
[2]; person one
  TGFβ2 immunoreactivity: significantly reduced
[2]; person one, 100 pM
  TGFβ2 immunoreactivity reduction, concentration dependence: strongest effect
[2]; person two, 1 pM concentration group
  TGFβ2 immunoreactivity: significantly reduced
[2]; summary of the examples
  expression of TGFβ2, overall: significant reduced expression
[3]; occipital scalp HFs, person one, both doses (1 pM, 100 pM)
  hair shaft elongation: slightly stimulated
[3]; [19]
  hair shaft elongation: did not significantly affect
[4]; person one
  MTCO1 immunoreactivity: significantly up-regulates
[4]; person two
  MTCO1 protein expression: no significant change
[6]; person one, 100 pM group
  tyrosinase activity: upregulated
[6]; person one, 100 pM, all HFs
  tyrosinase activity upregulation, significance: significant
[6]; [21]
  tyrosinase activity: slightly upregulated
[6]; summary of the examples
  tyrosinase activity, overall: upregulation
[7]; person one
  duration of anagen, macroscopically: no major effect
  hair cycle histomorphometry: clear anagen-prolonging effect
[7]; [20]
  number of anagen HFs: significantly increased
  number of catagen HFs: decreased
[7]
  hair cycle staging, macroscopic and microscopic, overall comparison: able to prolong anagen and to inhibit catagen development; also recorded: clearly prolongs anagen
[18]; clinical trial in humans
  effects on the heart: did not provoke detectable effects
  safety and tolerability: safe and well tolerated
[18]; moderately overweight and hypercholesterolemic subjects
  lowering of total and LDL cholesterol levels: up to 40%
[9]; person one, 100 pM, anagen HFs and all HFs
  melanin content: slightly increased
[9]; person one, 100 pM, only anagen HFs
  melanin content increase, significance: significant
[9]; [21]
  melanisation: slightly increased
[9]
  melanin content, overall comparison: increased melanin content
